Where “and” joins values, the source holds several entries; their conditions need not be identical. Identical values can stand only once. Entries after “also recorded” stand apart in the source; their conditions may differ.
Tests used:
[1] = tested on: Vascular smooth muscle (BO54) cells; format: cell-based, baboon
[2] = tested on: balloon traumatized rabbit carotid artery; format: in vivo; settings: rabbit, in vivo
left carotid artery [3] = settings: rat, in vivo
left carotid artery [4] = assay: Periadventitial delivery of crystals in pluronic gel after balloon trauma; format: in vivo, rats
Description: To further evaluate the efficacy of crystalline taxol to inhibit neointimal formation in rats, four groups of 5-6 adult male rats underwent balloon trauma of the left carotid artery followed immediately by periadventitial delivery of 1, 0.1,0.01 or 0 mg of taxol crystals in 500 mg of a pluronic polymer in gel matrix. Fourteen days later, the rats were sacrificed, serum was collected and their carotid arteries were processed for histologic and morphometric analysis.

[5] = Human liver slices distribution and metabolism study (HPLC); format: in vitro ADME; settings: for % Activity in Media / % Activity in Tissue: 37°C
Description: (§1) ^3H-cytochalasin B (2 µg; 30 µCi/µg) was injected i.v. into BALB/c mice having urinary bladders that had been externally ligated. Animals were sacrificed at 15 minutes, 30 minutes, 2 hours or 16 hours post-injection. Organs were removed, blotted, weighed, air dried and assayed for radioactivity. Fifty - 73% of the total injected dose was accounted for in the tissues sampled (blood, heart, brain, muscle, bone, lung, liver, spleen, stomach, kidney, intestines, and urinary bladder). Clearance of ^3H-cytochalasin B from the blood was extremely rapid with less than 1% of the injected dose in circulation by 15 minutes. […] Cytochalasin B Metabolism. ^3H-cytochalasin B at a dose of 1.5 or 8 µg/ml was mixed with viable or non-viable human liver slices and media, and the amount of ^3H-cytochalasin B in media or tissue assessed by HPLC (Tables 8 and 9).

[6] = Tissue distribution after intravascular delivery of crystals; format: in vivo, swine; settings: 10 µg/ml crystals in saline (saturated), three minutes under 1 atm
Description: The in vivo tissue distribution of cytochalasin B administered in crystalline form was evaluated in balloon traumatized swine femoral arteries after local delivery. A femoral artery of a Yorkshire crossbred swine was balloon traumatized by overinflation and rotation of a Vascu-Flo™ Silicone embolectomy catheter. Balloon trauma was immediately followed by intravascular delivery of 10 µg/ml ^3H-cytochalasin B crystals (Sigma Chemical Co., St. Louis, MO) in saline (saturated) for three minutes under 1 atm of pressure. Blood flow was resumed in the artery for five minutes prior to sacrifice of the animal.

[7] = MTT activity in human liver slices after 24 hour exposure; format: cell-based; settings: for MTT Absorbance: 24 hours, mean +/- standard deviation of triplicate liver samples
Description: The cytotoxity of ^3H-cytochalasin B and its subsequent metabolites was also assessed by evaluating dose dependent changes in mitochondrial function by monitoring 3-[4, 5-dimethylthiazol-2yl]-2, 5-diphenyltetrazolium bromide (MTT) activity following a 24 hour exposure of human liver slices to the test agent (Table 10).

[8] = Biodistribution of ^3H-cytochalasin B i.v.; format: in vivo, BALB/c mice
Description: as §1

[9] = 1.5 µg/ml, Media/viable tissue, 1/4/24 Hours = r5/r6/r7
[10] = 1.5 µg/ml, Media/viable tissue, 1/4/24 Hours = r2/r3/r4
[11] = 8 µg/ml, Media/boiled tissue, 1/4/24 Hours = r8/r9/r10
[12] = 8 µg/ml, Media/viable tissue, 1/4/24 Hours = r2/r3/r4
[13] = 8 µg/ml, Media/viable tissue, 1/4/24 Hours = r5/r6/r7

For `CN[C@@H]1C[C@H]2O[C@@](C)([C@@H]1OC)n1c3ccccc3c3c4c(c5c6ccccc6n2c5c31)C(=O)NC4` [staurosporin], the “therapeutic range (area under the curve of ^3H-leucine assay greater than ^3H-thymidine assay)” value (shortened to “therapeutic range”) [1] was “available therapeutic range”.
In the case of `CC(=O)O[C@H]1C(=O)[C@@]2(C)[C@H]([C@H](OC(=O)c3ccccc3)[C@]3(O)C[C@H](OC(=O)[C@H](O)[C@@H](NC(=O)c4ccccc4)c4ccccc4)C(C)=C1C3(C)C)[C@]1(OC(C)=O)CO[C@@H]1C[C@@H]2O` [taxol], the intimal proliferation [2] is reported as “no intimal or adventitial proliferation; also recorded: no intimal proliferation; also recorded: only minimal intimal proliferation”, the “morphometry compared to untreated control animals” value (left carotid artery [3]) is reported as “statistically significantly larger luminal areas and no neointimal proliferation” and the “toxicity at the surgical site” value (left carotid artery [3]) is reported as “significant toxicity at the surgical site”. The “myonecrosis of the adjacent skeletal muscle (animals)” value (“myonecrosis” for short) (left carotid artery [4]; 0.01 mg crystals in 500 mg pluronic gel) was 0/4, the “myonecrosis” value (left carotid artery [4]; 0.1 mg crystals in 500 mg pluronic gel) was 1/5 and the “myonecrosis” value (left carotid artery [4]; 1 mg crystals in 500 mg pluronic gel) was 3/3. For the same molecule, the “neointimal area less than that of control animals” value (left carotid artery [4]; 1 mg crystals in 500 mg pluronic gel, too few animals for statistics) was 38%, the “neointimal area and neointimal/medial ratio compared to control animals” value (left carotid artery [4]; 0.1 and 0.01 mg, did not reach statistical significance) was “a reduction in their neointimal area and neointimal/medial ratio was observed” and the “toxicity by dose group” value (left carotid artery [4]; crystals in pluronic gel) was “no (0.01 mg), minimal (0.1 mg) or limited (1.0 mg) toxicity”.
With ^3H-cytochalasin B the “% Extractable Activity” value [5, 9] was 99.5% and 99.4% and 99.6%, the “%Non extractable Activity” value [5, 9] was 0.5% and 0.6% and 0.4% and the “% Activity in Media” value [5, 10] was 84% and 91%. The “% Activity in Tissue” value [5, 10] was 16% and 9%, the “% Metabolized of Extractable Activity” value ([5]; 8 µg/ml, Media Only, 1/4/24 Hours = r11/r12/r13) was 5% and 4% and the “% Extractable Activity” value [5, 11] was 98.7% and 99.5% and 99.0%. The “% Metabolized of Extractable Activity” value [5, 11] was 5%, the “%Non extractable Activity” value [5, 11] was 1.3% and 0.5% and 1% and the “% Activity in Media” value [5, 11] was 87% and 83%. The “% Activity in Tissue” value [5, 11] was 13% and 17%, the “% Extractable Activity” value [5, 12] was 99.5% and 99.0% and 98.7% and the “%Non extractable Activity” value [5, 12] was 0.5% and 1% and 1.3%. The “% Activity in Media” value [5, 13] was 88% and 84% and 89%, the “% Activity in Tissue” value [5, 13] was 12% and 16% and 11% and the metabolized ([5]; within 24 hours) was 98%. The amount delivered [6] was 31 µg, the tissue distribution [6] was “localized predominantly to the adventitia” and the “MTT Absorbance” value ([7]; 0.1 µg/ml) was 0.844 +/- 0.014. The “MTT Absorbance” value ([7]; 1.5 µg/ml) was 0.841 +/- 0.081, the “MTT Absorbance” value ([7]; 8.0 µg/ml) was 0.850 +/- 0.082 and the “cytotoxicity of ^3H-cytochalasin B or its subsequent metabolites” value ([7]; 24 hour exposure) was “not cytotoxic”. The “^3H activity in all tissues” value ([8]; by 16 hours) was “below 1.5 % injected dose per gram of tissue” and the “retention of ^3H activity” value ([8]; mouse, in vivo) was “Only liver, skeletal muscle and intestines showed significant retention”.
For `O=[N+]([O-])OCC(CO[N+](=O)[O-])O[N+](=O)[O-]` [nitroglycerin], the “therapeutic range” value [1] was “available therapeutic range”.
For `Cc1ccc(C(=O)Nc2ccc(S(=O)(=O)O)c3cc(S(=O)(=O)O)cc(S(=O)(=O)O)c23)cc1NC(=O)c1cccc(NC(=O)Nc2cccc(C(=O)Nc3cc(C(=O)Nc4ccc(S(=O)(=O)O)c5cc(S(=O)(=O)O)cc(S(=O)(=O)O)c45)ccc3C)c2)c1` [suramin], the “therapeutic range” value [1] was “available therapeutic range”.
In the case of `CC(=O)O[C@@H]1/C=C\[C@@](C)(O)C(=O)[C@@H](C)C/C=C\[C@H]2[C@H](O)C(C)=C(C)[C@H]3C(Cc4ccccc4)NC(=O)[C@]132` (stereo partly drawn) [cytochalasin C], the “minimum effective dose (MED), DNA synthesis assay” value [1] is reported as 0.01 µg/mL.

From EP2292225A1 (priority 1997, dated 1998)
